Publication PMC5477519, “Leukocyte integrin Mac-1 regulates thrombosis via interaction with platelet GPIbα” (Nature Communications, 2017)

Columns and labels:
[1] = target: T1, αMI-domain double mutant of integrin Mac-1 (αMβ2, CD11b/CD18) (Homo sapiens, UniProt P11215, R232A/T229A); experiment: SPR (Biacore […], ~[…] RU, steady-state affinity); low-level binding, no consistent interaction at ~[…] RU
T1 construct: gene ITGAM; αMI-domain, human mutant

[2] = target: T2, αMI-domain of integrin Mac-1 (αMβ2, CD11b/CD18) (Homo sapiens, UniProt P11215); experiment: SPR (Biacore […], CM5 chip, steady-state affinity); supported by inhibition of GPIbα binding to αMI-domain (IC50 […])
T2 construct: gene ITGAM; αMI-domain, human WT
T2 sequence (P11215 150-328 limits assumed): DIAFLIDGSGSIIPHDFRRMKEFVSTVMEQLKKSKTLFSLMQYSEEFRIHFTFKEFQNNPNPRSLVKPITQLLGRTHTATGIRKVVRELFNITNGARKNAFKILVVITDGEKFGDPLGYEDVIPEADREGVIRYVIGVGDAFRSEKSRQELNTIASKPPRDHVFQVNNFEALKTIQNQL

T1 sequence (P11215 150-328 T229A/R232A limits assumed): as the sequence (P11215 150-328 limits assumed) above, with T80A, R83A counted along it

Kd [1]: ~244 µM
Kd [2]: ~100 µM
Structure (SMILES): N[C@H]1C(O)O[C@H](CO)[C@@H](O)[C@@H]1O (some centres unmarked) [glucosamine]
